# Data from patent publication US20100266618A1, “COMPOSITIONS AND METHODS FOR AUGMENTING ACTIVITY OF ONCOLYTIC VIRUSES” (priority 2009, published 2010).
# Like-named read-outs stand apart in the source and are kept apart here.
# Assays:
# U373 cells = test: In vitro cytotoxicity assays with small molecules followed by Maraba virus infection; details: for enhancement of viral oncolysis (cell viability): viability 48 h later
# [1] = system: U373 (glioblastoma) cells; type: cell-based, human
# [2] = system: NCI-H226 (non-small cell lung carcinoma) cells; test: Genome-wide synthetic lethal RNAi screen with Maraba virus infection, resazurin cell viability; details: synthetic lethal hits, siRNA against the gene plus Maraba virus
# [3] = system: OVCAR-8 (ovarian carcinoma) cells; type: cell-based, human
# [4] = synthetic lethal hits, siRNA against the gene plus Maraba virus
# [5] = siRNA against the named gene plus Maraba virus, synthetic lethal hit list
compound,measurement,setting,value
"COc1cc(-c2cccc(C(N)=O)c2)cc(C=O)c1O [Compound 2, 3′-formyl-4′-hydroxy-5′-methoxy-[1,1′-biphenyl]-3-carboxamide]","lowest, maximally effective dose in cell culture experiments",U373 cells,20 µM
same,combination index (CI) with Maraba virus,"U373 cells; U373, across a range of doses and MOIs",< 1.0
same,enhancement of viral oncolysis (cell viability),"U373 cells; U373, drug 4 h prior to Maraba virus infection",but not 4 hours
same,enhancement of viral oncolysis (cell viability),"U373 cells; U373, drug 48 h prior to Maraba virus infection",greatly enhanced viral oncolysis
BMP4,COMPOSITE MAD SCORE U373,[1]; [4],−2.038
same,COMPOSITE MAD SCORE NCIH226,[2],−2.642
same,COMPOSITE MAD SCORE OVCAR8,[3]; [4],−2.516
NODAL,COMPOSITE MAD SCORE U373,[1]; [5],−2.315
same,COMPOSITE MAD SCORE OVCAR8,[3]; [5],−4.721
tunicamycin [reference compound],virus-mediated killing after chemically induced ER preload,"U373 cells; pulse 48 hours before virus infection (5 ug/mL 24 h, 24 h washout)",enhance virus-mediated killing
